Like-named read-outs stand apart in the source and are kept apart here.
Columns and labels:
[1] = system: MDA-MB-435 melanoma cells; design: method as in PMID 27871038; conditions: previously described naphthyl analogues; read-out: IC50 on MDA-MB-435 cell line; cited from earlier work
[2] = Calculated physicochemical parameters (molsoft cheminformatic tool); conditions: predicted
Method: Data set of physicochemical properties (cLogP, TPSA and molecular volume, Table 2) were calculated using the online available molsoft cheminformatic tool[23]. IC50 values of the compounds included in the test are presented in Table 1 for the correlations between IC50 and physicochemical properties of compounds modified in position 2 (Figure 2), and in Table S1 (SI) for the correlations between in vitro anti-cancer activity of JMV5038, compound 5 and […] on the NCI cell line panel (Figure 4). Pearson’s correlation coefficient r and level of significant p values were calculated using Origin Pro 2019.

[3] = system: MDA-MB-435 melanoma cells; test: Neutral red uptake (NRU) viability assay, MDA-MB-435; type: cell-based, human; conditions: for IC50: Homo sapiens, MDA-MB-435, 72 h, mean ± SD of three experiments; for IC50 / cytotoxic activity on MDA-MB-435 (in words): NRU assay; for cytotoxic activity on MDA-MB-435 (in words): up to 40 µM; for times less active on MDA-MB-435 than on A375 cells: ratio of NRU IC50 values
Method: (§1) Melanoma human cancer cell line (A375 and MDA-MB-435) were obtained from ATCC. The NIH-3T3 cell line was generously gifted by the ANSM (French National Agency for Medicines and Health Products Safety, Vendargues, France). Cells were cultured in Dulbecco’s Modified Eagle Medium (DMEM, Sigma Aldrich) supplemented with 10% heat-inactivated foetal calf serum (FCS, Gibco), 2 mM glutamax (Gibco), 100 IU/mL penicillin G sodium (Sigma Aldrich), 100 lU/mL streptomycin sulphate (Sigma Aldrich). The cells were allowed to grow at 37 °C in a fully humidified atmosphere containing 5% CO2.
(§2) A viability assay was used to evaluate the cytotoxic activity on A375 and MDA-MB-435 melanoma cells as previously described. According to OCDE/ICCVAM guidance n°129, NRU assay was also used to evaluate the toxicity on the non-cancerous NIH-3T3 cells. Cells were seeded at a final concentration of 2000 cells/well (A375), 3000 cells/well (NIH-3T3) or 7500 cells/well (MDA-MB-435) in 96-well microtiter plates for 24 h. Then, cells were exposed to two negative controls (1% DMSO in culture medium (vehicle) and culture medium alone), or to different compounds freshly dissolved in DMSO, in a range of concentration from 0.01 to 40 µM (six wells per concentration). After 72 h of incubation, cells were stained with new medium containing 50 µg/mL of neutral red (3-amino-7-dimethylamino-2-methylphenazine hydrochloride, Sigma Aldrich) at 37 °C for 2 h. The neutral red medium solution was then removed and the wells were washed with PBS. Finally, 100 µL of solution containing ethanol, acetic acid and water (50/1/49 v/v/v respectively) were added into the wells and the absorbance was measured at 540 nm using the microplate reader 352 Multiscan MS (Labsystems). Cell survival rates were normalised to the absorbance values of untreated control cells. IC50 was obtained using a logistic regression model on Graphpad Prism 5.0 software. Results are given as the mean ± standard deviation (SD) of three independent experiments. Statistical analysis was performed using the Student’s t-test.

[4] = system: NIH-3T3 non-cancerous cells; test: Neutral red uptake (NRU) toxicity assay, NIH-3T3; type: cell-based; conditions: non-cancerous mouse fibroblasts
Method: as §1, §2
Then, all active compounds on the two melanoma cell lines (IC50 < 40 µM) were assessed on the NIH-3T3 mouse fibroblast cell line, in order to check the toxicity of our compounds on non-cancerous cells. […] As a possible modification of the mechanism of action was hypothesised for these two derivatives (see above), this phenomenon could probably be also correlated with the cytotoxicity observed on the NIH-3T3 cell line.

A375 melanoma cells = test: Neutral red uptake (NRU) viability assay, A375; type: cell-based, human; conditions: for IC50: Homo sapiens, A-375, 72 h, mean ± SD of three experiments; for cytotoxic activity on A375 (in words): up to 40 µM
Method: as §1, §2

[5] = Hydrolysis of ester 19 into acid 21 in the presence of melanoma cells and culture medium (HPLC-MS); type: in vitro ADME; conditions: after 72 h in the presence of melanoma cells and culture medium
From the text: Then, we turned our attention to the SAR study of the position 4 of the diazepine ring, keeping constant the 4-bromophenyl group at R^2 (i.e. compounds 13–17 and 19–22). […] Introduction of a ramified isobutyl chain (compound 15) led also to a loss of the activity (entry 13, Table 1). […] In the same way, a less flexible chain bearing an alkyne group (compound 14) was not tolerated, as well as a long chain (compound 22) (Table 1, entries 12 and 20 respectively).

| melting point [°C] | IC50 [3] [µM] | IC50 (A375 melanoma cells) [µM] | SMILES | IC50 ([4]; Mus musculus, NIH3T3, 72 h) [µM] | further results |
| --- | --- | --- | --- | --- | --- |
| 115 to 116 |  |  | C[C@@H]1NC(c2ccc(C#C[Si](C)(C)C)cc2)=Nc2nc3ccccn3c2C1=O |  |  |
|  |  |  | CC1NC(c2cccc3ccccc23)=Nc2nc3ccccn3c2C1=O (stereo not drawn) [1-naphthyl derivative] |  | IC50 [1]: 1.4 µM |
|  |  |  | CC1NC(c2ccc3ccccc3c2)=Nc2nc3ccccn3c2C1=O (stereo not drawn) [2-naphthyl derivative] |  | IC50 [1]: 1.4 µM |
| 128 to 129 | 5.14 ± 0.08 | 10.2 ± 0.55 | C#Cc1ccc(C2=Nc3nc4ccccn4c3C(=O)[C@H](C)N2)cc1 [4′, (4S)-4-methyl-2–(4-ethynylphenyl)-3,4-dihydro-5H-pyrido[1’,2’:1,2]imidazo[4,5-d][1,3]diazepin-5-one] | > 40 | molecular volume increase compared to JMV5038 [2]: 2% |
| 164.5 to 165.5 | > 40 | > 40 | C[C@@H]1NC(c2c[nH]c3ccccc23)=Nc2nc3ccccn3c2C1=O [9′, (4S)-4-methyl-2-indol-3-yl-3,4-dihydro-5H-pyrido[1’,2’:1,2]imidazo[4,5-d][1,3]diazepin-5-one] |  | cytotoxic activity on MDA-MB-435 (in words) [3]: totally inactive; cytotoxic activity on A375 (in words) (A375 melanoma cells): totally inactive |
| 132 to 133 | > 40 | > 40 | C[C@@H]1NC(c2ccc(C(=O)c3ccccc3)cc2)=Nc2nc3ccccn3c2C1=O [Compound 6, (4S)-4-methyl-2-(4-benzoylphenyl)-3,4-dihydro-5H-pyrido[1’,2’:1,2]imidazo[4,5-d][1,3]diazepin-5-one] |  | cytotoxic activity on MDA-MB-435 (in words) [3]: totally inactive; cytotoxic activity on A375 (in words) (A375 melanoma cells): totally inactive |
| 164 to 165 | 25.92 ± 0.17 | 8.47 ± 0.21 | C[C@@H]1NC(c2coc3ccccc23)=Nc2nc3ccccn3c2C1=O [Compound 7, (4S)-4-methyl-2-benzofuran-3-yl-3,4-dihydro-5H-pyrido[1’,2’:1,2]imidazo[4,5-d][1,3]diazepin-5-one] | > 40 | times less active on MDA-MB-435 than on A375 cells [3]: around 3 |
| 155 to 157 |  |  | C[C@@H]1NC(c2cn(C(=O)OC(C)(C)C)c3ccccc23)=Nc2nc3ccccn3c2C1=O [Compound 9, (4S)-4-methyl-2-(1-boc-indol-3-yl)-3,4-dihydro-5H-pyrido[1’,2’:1,2]imidazo[4,5-d][1,3]diazepin-5-one] |  |  |
| 165 to 166 | 35.49 ± 0.21 | 9.76 ± 0.95 | C[C@@H]1NC(c2ccc3ncccc3c2)=Nc2nc3ccccn3c2C1=O [Compound 10, (4S)-4-methyl-2-quinolin-6-yl-3,4-dihydro-5H-pyrido[1’,2’:1,2]imidazo[4,5-d][1,3]diazepin-5-one] | > 40 | times less active on MDA-MB-435 than on A375 cells [3]: around 3 |
| 170 to 171 | 30.71 ± 0.19 | 15.6 ± 0.7 | C[C@@H]1NC(c2ccc3ccccc3n2)=Nc2nc3ccccn3c2C1=O [Compound 11, (4S)-4-methyl-2-quinolin-2-yl-3,4-dihydro-5H-pyrido[1’,2’:1,2]imidazo[4,5-d][1,3]diazepin-5-one] | > 40 | times less active on MDA-MB-435 than on A375 cells [3]: around 3 |
| 132.5 to 133.5 | > 40 | > 40 | C[C@@H]1NC(c2ccc3oc(=O)ccc3c2)=Nc2nc3ccccn3c2C1=O [Compound 12, (4S)-4-methyl-2-coumarin-6-yl-3,4-dihydro-5H-pyrido[1’,2’:1,2]imidazo[4,5-d][1,3]diazepin-5-one] |  | cytotoxic activity on MDA-MB-435 (in words) [3]: totally abolished the activity; cytotoxic activity on A375 (in words) (A375 melanoma cells): totally abolished the activity |
|  | 30.83 ± 0.09 | 15.3 ± 1.29 | CCCC[C@@H]1NC(c2ccc(Br)cc2)=Nc2nc3ccccn3c2C1=O [Compound 13, (4S)-4-butyl-(4-bromophenyl)-3,4-dihydro-5H-pyrido[1’,2’:1,2]imidazo[4,5-d][1,3]diazepin-5-one] | > 40 |  |
|  | > 30 | > 40 | C#CC[C@@H]1NC(c2ccc(Br)cc2)=Nc2nc3ccccn3c2C1=O [Compound 14, (4S)-4-propargyl-2-(4-bromophenyl)-3,4-dihydro-5H-pyrido[1’,2’:1,2]imidazo[4,5-d][1,3]diazepin-5-one] |  |  |
| 72 to 73 | > 30 | > 40 | CC(C)C[C@@H]1NC(c2ccc(Br)cc2)=Nc2nc3ccccn3c2C1=O [Compound 15, (4S)-4-isobutyl-2-(4-bromophenyl)-3,4-dihydro-5H-pyrido[1’,2’:1,2]imidazo[4,5-d][1,3]diazepin-5-one] |  |  |
|  | 30.9 ± 0.11 | 8.54 ± 0.22 | [N-]=[N+]=NCCCC[C@H]1NC(c2ccc(Br)cc2)=Nc2nc3ccccn3c2C1=O [Compound 17, (4R)-4-(4-azidobutyl)-2-(4-bromophenyl)-3,4-dihydro-5H-pyrido[1’,2’:1,2]imidazo[4,5-d][1,3]diazepin-5-one] | ~10 | IC50 ([4]; 72 h): 13.7 ± 0.34 µM |
| 116 to 117 | > 40 | > 40 | [N-]=[N+]=NCCCC[C@@H]1NC(c2ccccc2)=Nc2nc3ccccn3c2C1=O [Compound 18, (4S)-4-(4-azidobutyl)-2-phenyl-3,4-dihydro-5H-pyrido[1’,2’:1,2]imidazo[4,5-d][1,3]diazepin-5-one] |  | cytotoxic activity on MDA-MB-435 (in words) [3]: totally inactive; cytotoxic activity on A375 (in words) (A375 melanoma cells): totally inactive |
| 72.5 to 73.5 | 19.4 ± 0.64 | 9.78 ± 0.83 | O=C(C[C@@H]1NC(c2ccc(Br)cc2)=Nc2nc3ccccn3c2C1=O)OCc1ccccc1 [Compound 19, (4S)-benzyl [2-(4-bromophenyl)-5-oxo-4,5-dihydro-3H-pyrido[1’,2’:1,2]imidazo[4,5-d][1,3]diazepin-4-yl]acetate] | > 40 | hydrolysis rate (conversion into acid 21) [5]: 65.5% |
|  | > 40 | > 40 | O=C1c2c(nc3ccccn23)N=C(c2ccc(Br)cc2)N2CCC[C@@H]12 [Compound 20, 7–(4-bromophenyl)-9,10,11,11a-tetrahydro-12H-pyrido[2’,1’:2,3]imidazo[4,5-f]pyrrolo[1,2-c][1,3]diazepin-12-one] |  |  |
|  | > 40 | > 40 | O=C(O)C[C@@H]1NC(c2ccc(Br)cc2)=Nc2nc3ccccn3c2C1=O [Compound 21, (4S)-[2-(4-bromophenyl)-5-oxo-4,5-dihydro-3H-pyrido[1’,2’:1,2]imidazo[4,5-d][1,3]diazepin-4-yl]acetic acid] |  | cytotoxic activity on MDA-MB-435 (in words) [3]: inactive; cytotoxic activity on A375 (in words) (A375 melanoma cells): inactive |
|  | > 40 | > 40 | C#CCCC(=O)NCCCC[C@@H]1NC(c2ccc(Br)cc2)=Nc2nc3ccccn3c2C1=O [Compound 22, (4S)-N-{4-[2-(4-bromophenyl)-5-oxo-4,5-dihydro-3H-pyrido[1’,2’:1,2]imidazo[4,5-d][1,3]diazepin-4-yl]butyl}pent-4-ynamide] |  |  |

From paper PMC7170309, “Imidazopyridine-fused [1,3]diazepinones: modulations of positions 2 to 4 and their impacts on the anti-melanoma activity” (Journal of Enzyme Inhibition and Medicinal Chemistry, 2020)
